Assay results taken from patent US12116358B2, “Substituted indoles and methods of use thereof” (EPIZYME, INC., priority 2018, dated 2024).
Like-named read-outs stand apart in the source and are kept apart here.

Key:
[1] = biological target: T1, SETD2(1434-1711) (Homo sapiens, UniProt Q9BYW2); test: SETD2 (1434-1711) assay; type: biochemical; conditions: read-out: SETD2 (1434-1711)
T1 construct: SETD2 (1434-1711) Assay; catalogue N/A
T1 sequence (Q9BYW2 1434-1711): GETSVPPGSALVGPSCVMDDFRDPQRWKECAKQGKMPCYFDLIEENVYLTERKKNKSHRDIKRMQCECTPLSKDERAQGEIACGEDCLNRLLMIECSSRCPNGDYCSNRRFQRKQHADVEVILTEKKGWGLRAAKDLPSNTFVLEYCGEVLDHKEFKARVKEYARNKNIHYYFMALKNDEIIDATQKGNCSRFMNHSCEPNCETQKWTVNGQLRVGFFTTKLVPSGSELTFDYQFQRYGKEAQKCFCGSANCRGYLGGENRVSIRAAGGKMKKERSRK

[2] = tested on: H3K36me3 in A549 cells; test: In-Cell Western (ICW) assay of SETD2 inhibitors (A549 assay); type: cell-based, human; conditions: A549 cells, read-out: SETD2 A549
Procedure, shortened: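 H3K36me3 In-Cell Western: cells exposed to compound for 3 days at 4,000 cells/well, 37° C. DRAQ5 (1:1000) marked cell number, with 700/800-channel Licor read-out.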

Compound	IC50 [1]	IC50 [2]	IC50 ([2]; Homo sapiens)
CC(=O)N1CCN(C2CCCC(NC(=O)c3cc4c(F)ccc(C)c4[nH]3)C2)CC1C(F)(F)F (stereo not shown) [compound 1018]	30 nM	70 nM	–
CC(=O)N1CCN(C2CCCC(NC(=O)c3cc4c(F)ccc(C)c4[nH]3)C2)C(C)C1 (stereo not shown) [compound 1021]	50 nM	90 nM	–
CC(=O)N1CCN(C2CCCC(NC(=O)c3cc4c(F)ccc(C)c4[nH]3)C2)CC1CO (stereo not shown) [compound 1022]	2600 nM	> 2000 nM	–
CC(=O)N1CCN([C@H]2CCC[C@@H](NC(=O)c3cc4c(F)ccc(C)c4[nH]3)C2)C2(CC2)C1 [compound 1024]	50 nM	–	60 nM
CC(=O)N1CCN([C@H]2CCC[C@@H](NC(=O)c3cc4c(F)ccc(C)c4[nH]3)C2)CC12CC2 [compound 1025]	20 nM	–	30 nM
Cc1ccc(F)c2cc(C(=O)N[C@@H]3CCC[C@H](N4CCn5nc(C(F)(F)F)nc5C4)C3)[nH]c12 [compound 1031]	200 nM	–	1400 nM
CC(=O)N1CCN(C[C@H]2CCC[C@@H](NC(=O)c3cc4c(F)ccc(C)c4[nH]3)C2)CC1 [compound 1032]	200 nM	–	400 nM
Cc1ccc(F)c2cc(C(=O)N[C@@H]3CCC[C@H](N4CCN(C(=O)NC5CCOCC5)CC4)C3)[nH]c12 [compound 1037]	30 nM	–	300 nM
COCC(=O)N(C)[C@@H]1CCN([C@H]2CCC[C@@H](NC(=O)c3cc4c(F)ccc(C)c4[nH]3)C2)C1 [compound 1042]	20 nM	–	200 nM
COCC(=O)N(C)[C@H]1CCN([C@H]2CCC[C@@H](NC(=O)c3cc4c(F)ccc(C)c4[nH]3)C2)C1 [compound 1043]	8 nM	–	40 nM
Cc1ccc(F)c2cc(C(=O)N[C@@H]3CCC[C@H](N4CCN5C(=O)CCC[C@@H]5C4)C3)[nH]c12 [compound 1044]	20 nM	–	20 nM
Cc1ccc(F)c2cc(C(=O)N[C@@H]3CCC[C@H](N4CCN5C(=O)COCC5C4)C3)[nH]c12 (stereo partly shown) [compound 1045]	8 nM	–	30 nM
Cc1ccc(F)c2cc(C(=O)NC3CCCC(N4CCN5C(=O)CN(C)C(=O)C5C4)C3)[nH]c12 (stereo not shown) [compound 1046]	2800 nM	> 2000 nM	–
Cc1ccc(F)c2cc(C(=O)N[C@@H]3CCC[C@H](N4CCn5c(cccc5=O)C4)C3)[nH]c12 [compound 1048]	20 nM	–	70 nM
Cc1ccc(F)c2cc(C(=O)N[C@@H]3CCC[C@H](N4CCn5c(nccc5=O)C4)C3)[nH]c12 [compound 1049]	50 nM	–	100 nM
Cc1ccc(F)c2cc(C(=O)NC3CCCC(N4CCN5C(=O)NCC5C4)C3)[nH]c12 (stereo not shown) [compound 1050]	1000 nM	> 2000 nM	–
Cc1ccc(F)c2cc(C(=O)NC3CCCC(N4CCN5C(=O)N(C)CC5C4)C3)[nH]c12 (stereo not shown) [compound 1051]	10 nM	30 nM	–
Cc1ccc(F)c2cc(C(=O)NC3CCCC(N4CCC(N(C)C(=O)C(C)(C)O)C4)C3)[nH]c12 (stereo not shown) [compound 1052]	20 nM	50 nM	–
CCN(C(=O)CO)C1CCN(C2CCCC(NC(=O)c3cc4c(F)ccc(C)c4[nH]3)C2)C1 (stereo not shown) [compound 1053]	30 nM	400 nM	–

Continued, values first:

IC50 [1]	IC50 [2]	IC50 ([2]; Homo sapiens)	Compound
10 nM	–	90 nM	CCN([C@@H]1CCN([C@H]2CCC[C@@H](NC(=O)c3cc4c(F)ccc(C)c4[nH]3)C2)C1)S(C)(=O)=O [compound 1054]
9 nM	5 nM	–	CCC1CN(C2CCCC(NC(=O)c3cc4c(F)ccc(C)c4[nH]3)C2)CCN1C(C)=O (stereo not shown) [compound 1055]
90 nM	–	300 nM	Cc1ccc(F)c2cc(C(=O)N[C@@H]3CCC[C@H](N4CCn5c(nn(C)c5=O)C4)C3)[nH]c12 [compound 1056]
40 nM	–	100 nM	Cc1ccc(F)c2cc(C(=O)N[C@@H]3CCC[C@H](N4CCn5c(cn(C)c5=O)C4)C3)[nH]c12 [compound 1057]
40 nM	–	600 nM	Cc1ccc(F)c2cc(C(=O)N[C@@H]3CCC[C@H](N4CCn5c(n[nH]c5=O)C4)C3)[nH]c12 [compound 1058]
20 nM	–	600 nM	Cc1ccc(F)c2cc(C(=O)N[C@@H]3CCC[C@H](N4CCn5c(c[nH]c5=O)C4)C3)[nH]c12 [compound 1059]
20 nM	–	300 nM	Cc1ccc(F)c2cc(C(=O)N[C@@H]3CCC[C@H](N4CC[C@H](N(CCO)S(C)(=O)=O)C4)C3)[nH]c12 [compound 1061]
10 nM	–	10 nM	CC(=O)N1[C@H](C)CN([C@H]2CCC[C@@H](NC(=O)c3cc4c(F)ccc(C)c4[nH]3)C2)C[C@H]1C [compound 1062]
2900 nM	–	> 2000 nM	COCC(=O)N(C)[C@H]1CCN([C@@H]2CCC[C@@H](NC(=O)c3cc4c(F)ccc(C)c4[nH]3)C2)C1 [compound 1063]
2300 nM	–	> 2000 nM	Cc1ccc(F)c2cc(C(=O)N[C@@H]3CCC[C@@H](c4ccncn4)C3)[nH]c12 [compound 1064]
9100 nM	–	> 2000 nM	Cc1nc([C@@H]2CCC[C@H](NC(=O)c3cc4c(F)ccc(C)c4[nH]3)C2)no1 [compound 1065]
5500 nM	> 2000 nM	–	Cc1ccc(F)c2cc(C(=O)NC3CCCC(N4CCn5nc(C(F)(F)F)nc5C4)C3)[nH]c12 (stereo not shown) [compound 1066]
900 nM	1200 nM	–	Cc1ccc(F)c2cc(C(=O)NC3CCCC(N4CCN5C(=O)COCC5C4)C3)[nH]c12 (stereo not shown) [compound 1067]
100 nM	–	700 nM	Cc1ccc(F)c2cc(C(=O)N[C@@H]3CCC[C@H](c4cc(=O)[nH]cn4)C3)[nH]c12 [compound 1068]
10 nM	–	10 nM	CC(=O)N1CCN([C@H]2CCC[C@@H](NC(=O)c3cc4c(F)ccc(C)c4[nH]3)C2)C[C@H]1C(F)(F)F [compound 1070]
5200 nM	–	> 2000 nM	CC(=O)N1CCN([C@@H]2CCC[C@@H](NC(=O)c3cc4c(F)ccc(C)c4[nH]3)C2)C[C@@H]1C(F)(F)F [compound 1071]
2300 nM	–	> 2000 nM	CC(=O)N1CCN([C@@H]2CCC[C@@H](NC(=O)c3cc4c(F)ccc(C)c4[nH]3)C2)C[C@H]1C(F)(F)F [compound 1072]
4500 nM	–	> 2000 nM	CC(=O)N1CCN([C@@H]2CCC[C@@H](NC(=O)c3cc4c(F)ccc(C)c4[nH]3)C2)[C@@H](C)C1 [compound 1074]
1400 nM	–	1700 nM	CC(=O)N1CCN([C@@H]2CCC[C@@H](NC(=O)c3cc4c(F)ccc(C)c4[nH]3)C2)C[C@H]1CO [compound 1076]
> 10000 nM	–	> 2000 nM	CC(=O)N1CCN(C[C@@H]2CCC[C@H](NC(=O)c3cc4c(F)ccc(C)c4[nH]3)C2)CC1 [compound 1077]
10 nM	30 nM	–	Cc1ccc(F)c2cc(C(=O)NC3CCCC(N4CCN5C(=O)CCCC5C4)C3)[nH]c12 (stereo not shown) [compound 1078]
300 nM	–	1300 nM	Cc1ccc(F)c2cc(C(=O)N[C@@H]3CCC[C@@H](N4CCN5C(=O)CCC[C@@H]5C4)C3)[nH]c12 [compound 1079]
500 nM	1700 nM	–	Cc1ccc(F)c2cc(C(=O)NC3CCCC(N4CCN5C(=O)CCCC5C4)C3)[nH]c12 (stereo not shown) [compound 1080]
600 nM	–	> 2000 nM	Cc1ccc(F)c2cc(C(=O)N[C@@H]3CCC[C@@H](N4CCN5C(=O)NC[C@H]5C4)C3)[nH]c12 [compound 1082]
20 nM	50 nM	–	Cc1ccc(F)c2cc(C(=O)NC3CCCC(N4CCN5C(=O)NCC5C4)C3)[nH]c12 (stereo not shown) [compound 1083]
100 nM	500 nM	–	Cc1ccc(F)c2cc(C(=O)NC3CCCC(N4CCN5C(=O)NCC5C4)C3)[nH]c12 (stereo not shown) [compound 1084]
30 nM	–	100 nM	CC[C@H]1CN([C@H]2CCC[C@@H](NC(=O)c3cc4c(F)ccc(C)c4[nH]3)C2)CCN1C(C)=O [compound 1085]
800 nM	–	> 2000 nM	CC[C@H]1CN([C@@H]2CCC[C@@H](NC(=O)c3cc4c(F)ccc(C)c4[nH]3)C2)CCN1C(C)=O [compound 1086]
